From article PMC11181336, “Discovery of ITI-333, a Novel Orally Bioavailable Molecule Targeting Multiple Receptors for the Treatment of Pain and Other Disorders” (Journal of Medicinal Chemistry, 2024) come the findings set out here.

The target in assay [1] is human recombinant dopamine D2 short receptor (Homo sapiens, UniProt P14416). Kind of assay: Dopamine D2 receptor binding, [3H]7-OH-DPAT displacement. The conditions noted are these: for inhibition at 0.1 µM: read-out: D2 % inhibition.
In assay [2] the target is T1, human full-length recombinant serotonin 5-HT2A receptors (Homo sapiens, UniProt P28223).
T1 construct: human full-length recombinant serotonin 5-HT2A receptors expressed in HEK-293E cells
T1 sequence (P28223 whole entry): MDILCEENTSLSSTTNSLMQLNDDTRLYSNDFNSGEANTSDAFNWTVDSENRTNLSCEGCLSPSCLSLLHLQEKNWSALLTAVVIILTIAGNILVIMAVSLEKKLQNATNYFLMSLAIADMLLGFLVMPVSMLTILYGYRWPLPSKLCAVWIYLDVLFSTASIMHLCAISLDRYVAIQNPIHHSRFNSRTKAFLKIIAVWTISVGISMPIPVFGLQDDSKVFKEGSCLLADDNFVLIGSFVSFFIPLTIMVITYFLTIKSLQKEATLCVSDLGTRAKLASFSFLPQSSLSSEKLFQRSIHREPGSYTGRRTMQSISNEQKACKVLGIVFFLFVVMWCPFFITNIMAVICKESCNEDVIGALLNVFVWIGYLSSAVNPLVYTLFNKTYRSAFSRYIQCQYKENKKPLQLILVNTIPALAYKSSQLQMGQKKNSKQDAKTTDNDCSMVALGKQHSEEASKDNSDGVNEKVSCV
Kind of assay: biochemical. The format is binding. The following applies: for inhibition at 0.1 µM: read-out: 5-HT2A % inhibition.

For assay [3], the target named is human recombinant dopamine D1 receptor (Homo sapiens, UniProt P21728). Kind of assay: Dopamine D1 receptor binding, [3H]SCH 23390 displacement. The conditions noted are these: for inhibition at 0.1 µM: read-out: D1 % inhibition.
Sequence of human recombinant dopamine D1 receptor (P21728 whole entry): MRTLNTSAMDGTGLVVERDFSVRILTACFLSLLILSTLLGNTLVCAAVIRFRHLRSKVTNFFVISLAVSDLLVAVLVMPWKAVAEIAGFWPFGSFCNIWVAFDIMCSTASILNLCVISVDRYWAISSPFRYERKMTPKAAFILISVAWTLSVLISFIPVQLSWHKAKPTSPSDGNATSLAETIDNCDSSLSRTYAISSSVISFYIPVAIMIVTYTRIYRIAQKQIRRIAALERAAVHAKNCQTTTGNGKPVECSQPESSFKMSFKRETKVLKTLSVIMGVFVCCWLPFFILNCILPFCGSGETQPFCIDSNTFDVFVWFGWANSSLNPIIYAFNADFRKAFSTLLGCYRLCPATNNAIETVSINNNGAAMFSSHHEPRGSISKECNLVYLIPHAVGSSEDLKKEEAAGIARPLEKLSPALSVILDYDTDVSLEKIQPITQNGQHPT
For assay [4], the target named is T2, human recombinant 5-HT transporter (SERT) (Homo sapiens, UniProt P31645).
T2 construct: host or cells: CHO-S / SERT (h), cell membrane homogenates
T2 sequence (P31645 whole entry): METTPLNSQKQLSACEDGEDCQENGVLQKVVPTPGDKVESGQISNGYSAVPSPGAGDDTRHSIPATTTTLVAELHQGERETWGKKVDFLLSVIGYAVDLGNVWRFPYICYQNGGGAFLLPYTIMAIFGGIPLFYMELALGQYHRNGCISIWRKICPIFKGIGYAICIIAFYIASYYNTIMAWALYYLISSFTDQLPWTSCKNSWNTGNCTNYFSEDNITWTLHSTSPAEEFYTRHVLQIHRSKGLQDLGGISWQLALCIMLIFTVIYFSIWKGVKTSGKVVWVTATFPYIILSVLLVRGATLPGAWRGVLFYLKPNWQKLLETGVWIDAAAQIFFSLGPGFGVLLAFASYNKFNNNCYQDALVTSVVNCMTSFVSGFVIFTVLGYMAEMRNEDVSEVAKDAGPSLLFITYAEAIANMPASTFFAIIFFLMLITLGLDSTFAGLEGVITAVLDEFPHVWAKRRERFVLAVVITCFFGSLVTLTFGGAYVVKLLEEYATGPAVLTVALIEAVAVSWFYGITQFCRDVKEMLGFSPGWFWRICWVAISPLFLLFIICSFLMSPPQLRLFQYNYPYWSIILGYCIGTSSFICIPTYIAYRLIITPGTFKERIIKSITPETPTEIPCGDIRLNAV
Kind of assay: biochemical. Format: binding. The following applies: for inhibition at 0.1 µM / inhibition at 0.2 µM: read-out: SERT % inhibition.

[5] abbreviates: inhibition at 100 nM, NI = no inhibition.

Where two headings read alike, the source gives them in different places.

Sequence of human recombinant dopamine D2 short receptor (P14416 1-414 isoform P14416-2): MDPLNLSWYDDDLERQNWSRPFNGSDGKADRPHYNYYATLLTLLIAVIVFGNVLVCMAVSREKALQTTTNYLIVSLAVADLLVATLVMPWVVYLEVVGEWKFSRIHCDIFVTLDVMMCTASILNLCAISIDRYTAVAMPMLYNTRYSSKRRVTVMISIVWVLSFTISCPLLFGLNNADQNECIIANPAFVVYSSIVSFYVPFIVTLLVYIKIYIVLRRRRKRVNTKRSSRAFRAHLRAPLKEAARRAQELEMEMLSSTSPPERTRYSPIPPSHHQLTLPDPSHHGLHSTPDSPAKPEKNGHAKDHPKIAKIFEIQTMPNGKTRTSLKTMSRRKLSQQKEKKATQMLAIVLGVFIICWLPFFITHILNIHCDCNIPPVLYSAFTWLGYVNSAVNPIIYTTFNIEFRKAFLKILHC

What is called Ki is a dissociation constant, usually derived from enzyme kinetics or from competition with a known ligand. Consider `O=C1CN2c3c(cccc3[C@@H]3CN(CCCc4noc5cc(F)ccc45)CC[C@@H]32)N1` [compound 26, (6bR,10aS)-8-(3-(6-Fluorobenzo[d]isoxazol-3-yl)propyl)-6b,7,8,9,10,10a-hexahydro-1H-pyrido[3′,4′:4,5]-pyrrolo[1,2,3-de]quinoxalin-2(3H)-one], for which the results for the Ki in assay [1], in assay [2] and in assay [3] were 0.084 µM, 0.0031 µM and 0.013 µM, respectively. Also, in assay [1], the “fold weaker affinity to dopamine D2 receptors” value is “over 5 fold”.

Broadly, the inhibition is the share of the control response that was lost under treatment. For the compound `Cc1ccc(OCCCN2CC[C@H]3[C@@H](C2)c2cccc4c2N3CC(=O)N4)cc1` [compound 32, (6bR,10aS)-8-(3-(p-Tolyloxy)propyl)-6b,7,8,9,10,10a-hexahydro-1H-pyrido[3′,4′:4,5]pyrrolo[1,2,3-de]-quinoxalin-2(3H)-one], the inhibition at 0.1 µM in assay [1] (setting [5]) was 20%; in assay [2] it was 62%; in assay [4], 9.6%; in assay [3] (setting [5]), 13%.

Regarding `O=C1CN2c3c(cccc3[C@@H]3CN(CCCOc4ccccc4F)CC[C@@H]32)N1` [compound 36, (6bR,10aS)-8-(3-(2-Fluorophenoxy)propyl)-6b,7,8,9,10,10a-hexahydro-1H-pyrido[3′,4′:4,5]pyrrolo[1,2,3-de]quinoxalin-2(3H)-one], the inhibition at 0.1 µM came out at 28% in assay [1] (setting [5]), 87% in assay [2], 5.1% in assay [4] and 18% in assay [3] (setting [5]).

In the case of `O=C1CN2c3c(cccc3[C@@H]3CN(CCOc4ccc(F)cc4)CC[C@@H]32)N1` [compound 49, (6bR,10aS)-8-(2-(4-Fluorophenoxy)ethyl)-6b,7,8,9,10,10a-hexahydro-1H-pyrido[3′,4′:4,5]pyrrolo[1,2,3-de]quinoxalin-2(3H)-one], the inhibition at 0.1 µM in assay [1] (setting [5]) is 24%; in assay [2] it was 48%; in assay [4], less than 0%; in assay [3] (setting [5]) it was 10%.

As to `O=C1CN2c3c(cccc3[C@@H]3CN(CCCS(=O)(=O)c4ccc(F)cc4)CC[C@@H]32)N1` [compound 46, (6bR,10aS)-8-(3-((4-Fluorophenyl)sulfonyl)propyl)-6b,7,8,9,10,10a-hexahydro-1H-pyrido[3′,4′:4,5]-pyrrolo-[1,2,3-de]quinoxalin-2(3H)-one], the inhibition at 0.1 µM in assay [1] (setting [5]) was less than 0%; in assay [2], 33%; in assay [3] (setting [5]), less than 0%. The inhibition at 0.2 µM in assay [4] was less than 0%.

Consider `CC1C(=O)Nc2cccc3c2N1[C@H]1CCN(CCCOc2ccc(F)cc2)C[C@@H]31` (stereo partly drawn) [compound 51, (6bR,10aS)-8-(3-(4-Fluorophenoxy)propyl)-1-methyl-6b,7,8,9,10,10a-hexahydro-1H-pyrido[3′,4′:4,5]-pyrrolo[1,2,3-de]quinoxalin-2(3H)-one], for which the inhibition at 0.1 µM in assay [1] (setting [5]) was 49%; in assay [2], 88%; in assay [4], less than 0%; in assay [3] (setting [5]), 26%.

Turning to `NC(=O)c1cc(F)ccc1OCCCN1CC[C@H]2[C@@H](C1)c1cccc3c1N2CC(=O)N3` [compound 38, 5-Fluoro-2-(3-((6bR,10aS)-2-oxo-2,3,6b,9,10,10a-hexahydro-1H-pyrido[3′,4′:4,5]pyrrolo[1,2,3-de]quinoxalin-8(7H)-yl)propoxy)benzamide], the inhibition at 0.1 µM in assay [1] (setting [5]) was less than 0%; in assay [2], 14%; in assay [4], 9.6%; in assay [3] (setting [5]) it was less than 0%.

Take `O=C1CN2c3c(cccc3[C@@H]3CN(CCCOc4cccc(F)c4)CC[C@@H]32)N1` [compound 37, (6bR,10aS)-8-(3-(3-Fluorophenoxy)propyl)-6b,7,8,9,10,10a-hexahydro-1H-pyrido[3′,4′:4,5]pyrrolo[1,2,3-de]quinoxalin-2(3H)-one]: the inhibition at 0.1 µM is 14% in assay [1] (setting [5]), 78% in assay [2], 7.7% in assay [4] and 32% in assay [3] (setting [5]).

On to `O=C1CN2c3c(cccc3[C@@H]3CN(CCCOc4ccc(F)c(F)c4)CC[C@@H]32)N1` [compound 39, (6bR,10aS)-8-(3-(3,4-Difluorophenoxy)propyl)-6b,7,8,9,10,10a-hexahydro-1H-pyrido[3′,4′:4,5]pyrrolo-[1,2,3-de]quinoxalin-2(3H)-one], for which, in assay [1], the “D2(Ki or (% Inhibition)): % inhibition” value is 1620 (7%), the Ki came out at 1.62 µM and the inhibition at 0.1 µM is 7%. For the same compound, in assay [2], the “5-HT2A (Ki or (% Inhibition)): % inhibition” value was 16.1 (71%), the Ki was 0.0161 µM, the “fold reduction of affinity to 5-HT2A receptors” value was “approximately 6 fold” and the inhibition at 0.1 µM is 71%. In addition, in assay [4], the Ki amounted to 0.508 µM, the “SERT (Ki or (% Inhibition)): % inhibition” value is 508 (15%) and the inhibition at 0.2 µM was 15%. In assay [3], the “D1(Ki or (% Inhibition)): % inhibition” value was 232 (15%), the Ki turned out to be 0.232 µM and the inhibition at 0.1 µM came to 15%.

On to `CCCCN1CC[C@H]2[C@@H](C1)c1cccc3c1N2CC(=O)N3` [compound 21, (6bR,10aS)-8-Butyl-6b,7,8,9,10,10a-hexahydro-1H-pyrido[3′,4′:4,5]pyrrolo[1,2,3-de]quinoxalin-2(3H)-one], for which the figures for the inhibition at 0.1 µM in assay [1] (setting [5]), in assay [2] and in assay [3] (setting [5]) were 15%, less than 0% and less than 0%, respectively. In assay [4], the inhibition at 0.2 µM was less than 0%.

For the compound `O=C1CN2c3c(cccc3[C@@H]3CN(CCCOc4ccc(F)cc4)CC[C@H]32)N1` (racemic) [compound 20, (±)-(trans)-8-(3-(4-Fluorophenoxy)propyl)-6b,7,8,9,10,10a-hexahydro-1H-pyrido[3′,4′:4,5]pyrrolo[1,2,3-de]quinoxalin-2(3H)-one], the inhibition at 0.1 µM in assay [4] is less than 0%; in assay [3], 79%. Also, the “D1(Ki or (% Inhibition)): % inhibition” value in assay [3] is 5.6 (79%).

`O=C1CN2c3c(cccc3[C@@H]3CN(CCCOc4ccc5c(c4)OCO5)CC[C@@H]32)N1` [compound 28, (6bR,10aS)-8-(3-(Benzo[d][1,3]dioxol-5-yloxy)propyl)-6b,7,8,9,10,10a-hexahydro-1H-pyrido[3′,4′:4,5]-pyrrolo[1,2,3-de]quinoxalin-2(3H)-one]: the inhibition at 0.1 µM in assay [2] and in assay [3] (setting [5]) was less than 0% in each case.

Turning to `COc1ccc(OCCCN2CC[C@H]3[C@@H](C2)c2cccc4c2N3CC(=O)N4)cc1` [compound 34, (6bR,10aS)-8-(3-(4-Methoxyphenoxy)propyl)-6b,7,8,9,10,10a-hexahydro-1H-pyrido[3′,4′:4,5]pyrrolo-[1,2,3-de]quinoxalin-2(3H)-one], the figures for the inhibition at 0.1 µM in assay [2], in assay [4] and in assay [3] (setting [5]) were less than 0%, 10% and less than 0%, respectively.

Consider `O=C1CN2c3c(cccc3[C@H]3CN(CCCOc4ccc(F)cc4)CC[C@H]32)N1` [compound 54, (6bS,10aR)-8-(3-(4-Fluorophenoxy)propyl)-6b,7,8,9,10,10a-hexahydro-1H-pyrido[3′,4′:4,5]pyrrolo[1,2,3-de]quinoxalin-2(3H)-one], for which the inhibition at 0.1 µM in assay [4] was less than 0%. In assay [3], the “D1(Ki or (% Inhibition)): % inhibition” value was 75 (50%) and the inhibition at 0.1 µM was determined as 50%.
